Measurements: patent EP2879657B1, “NOVEL SIRT1 ACTIVATORS AND PHARMACEUTICAL OR COSMETIC COMPOSITIONS COMPRISING THEM” (Centre National de la Recherche Scientifique (C.N.R.S.), priority 2012, dated 2014)
Where two headings read alike, the source gives them in different places.

How the values were obtained:
[1] = system: adipocytes humains matures; assay: Lipolysis: glycerol released by mature adipocytes (AdipoLyze Detection Assay); assay type: cell-based; details: Adipocyte, read-out: augmentation de la quantité de glycérol secrété par les adipocytes
Text: Les préadipocytes primaires sous-cutanés humains fournis par Lonza ont été mis en culture (10 000 cellules/puits dans des plaques de 96 puits) dans un milieu de croissance (PGM-2, Lonza, PT-9502) pendant une nuit. A J1, les cellules ont été mises dans le milieu de différenciation pendant 12 jours pour acquérir les caractéristiques des adipocytes matures. […]

Sirt1 = target: T1, Sirt1 (Homo sapiens, UniProt Q96EB6); assay: HTRF SIRT1 Assay (Cisbio): enzymatic activity of purified Sirt1; assay type: biochemical; details: 0.5 h; at about 2,5 µM (1 µg/ml); vs enzyme without compound; read-out: % d'augmentation de l'activité de Sirt1
T1 construct: purchased Cisbio
T1 sequence (Q96EB6 1-747): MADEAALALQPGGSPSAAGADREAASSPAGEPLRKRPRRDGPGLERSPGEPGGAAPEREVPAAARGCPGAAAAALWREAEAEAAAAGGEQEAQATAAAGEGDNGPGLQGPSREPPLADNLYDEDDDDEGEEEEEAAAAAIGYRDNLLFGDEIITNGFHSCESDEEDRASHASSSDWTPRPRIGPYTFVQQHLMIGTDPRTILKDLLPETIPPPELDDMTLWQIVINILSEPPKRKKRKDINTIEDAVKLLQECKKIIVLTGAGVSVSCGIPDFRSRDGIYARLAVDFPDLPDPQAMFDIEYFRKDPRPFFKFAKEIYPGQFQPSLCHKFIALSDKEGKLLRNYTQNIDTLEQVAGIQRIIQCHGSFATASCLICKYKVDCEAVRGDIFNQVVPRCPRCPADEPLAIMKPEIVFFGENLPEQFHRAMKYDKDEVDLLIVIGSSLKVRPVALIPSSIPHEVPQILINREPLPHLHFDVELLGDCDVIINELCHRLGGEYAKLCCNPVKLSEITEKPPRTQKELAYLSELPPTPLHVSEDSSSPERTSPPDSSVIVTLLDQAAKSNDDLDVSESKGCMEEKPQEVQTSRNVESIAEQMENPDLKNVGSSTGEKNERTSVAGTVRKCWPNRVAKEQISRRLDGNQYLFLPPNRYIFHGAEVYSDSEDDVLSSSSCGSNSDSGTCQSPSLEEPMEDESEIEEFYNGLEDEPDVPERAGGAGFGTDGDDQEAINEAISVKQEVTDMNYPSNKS
Experimental: L'activité enzymatique de Sirt1 a été évaluée à l'aide du kit «HTRF^R SIRT1 Assay » vendu par la Société Cisbio. Lors de ces expériences, l'enzyme purifiée a été incubée à température ambiante en présence du NAD (cofacteur) de son substrat acétylé et du composé à tester utilisé aux concentrations variant de 0,24 µM à 280 µM. « SIRT1 Activator 3 », un activateur commercial de Sirt1 a été utilisé comme un contrôle positif. Après 30 min d'incubation, la réaction enzymatique est arrêtée et la quantité de substrat acétylé restante est évaluée à l'aide d'un anticorps spécifique.
Une augmentation de l'activité enzymatique de Sirt1 en présence des composés décrits s'est traduite par une diminution de la quantité d'anticorps capable de se fixer sur le substrat et donc par une diminution de l'émission de fluorescence qui en résulte, comparé à la valeur obtenue avec l'enzyme seule. Les résultats sont exprimés en % d'augmentation de l'activité de Sirt1 par rapport à celle obtenue avec l'enzyme sans ajout des composés.

[2] = 50 µM, mature adipocytes treated 72h, culture supernatant

Row | Compound | activation at 50 µM [1, 2] | activation at 2.5 µM (Sirt1) | activation at 50 µM ([1]; 72 h)
1 | CC(=O)N(C)[C@H]1CC[C@@]2(C)C(=CC[C@H]3[C@@H]4CC[C@@H]5[C@H](C)N(C(C)=O)C[C@@]54CC[C@@H]32)C1 [C6, N-acétyl-3 β-(N-méthylacétamido)-norcon-5-énine] | 41% | > 50% | 
2 | CC(=O)N(C)[C@H]1CC[C@@]2(C)C(=CC(=O)[C@H]3[C@@H]4CC[C@@H]5[C@H](C)OC(=O)[C@@]54CC[C@@H]32)C1 [C5, Acide 20 α-hydroxy-3 β-(N-méthylacétamido)-7-oxo-, γ-lactone pregn-5-èn-18-oïque] | 14% |  | 
3 | CC(=O)N[C@H]1CC[C@@]2(C)C(=CC[C@H]3[C@@H]4CC[C@H]([C@H](C)NC(C)=O)[C@@]4(COC(C)=O)CC[C@@H]32)C1 (single isomer, unassigned; diac) [C3, Acétatede 3 β, 20 α-diacétamido-pregn-5-en-18-ol] | 18% |  | 
4 | CC(=O)N(C)[C@H]1CC[C@@]2(C)[C@@H](CC[C@@H]3[C@@H]2CC[C@]2(C)[C@@H]([C@H](C)N(C)C)CC[C@@H]32)C1 [C2, N-[(3 β, 5 α, 20S)-20-(diméthylamino)pregnan-3-yl]-N-méthyl-acétamide] | 24% |  | 
5 | CC(=O)N(C)[C@H]1CC[C@@]2(C)C(=C[C@H](O)[C@H]3[C@@H]4CC[C@@H]5[C@H](C)OC(=O)[C@@]54CC[C@@H]32)C1 [C4, Acide 3-(acétylméthylamino)-7,20-dihydroxy-, γ-lactone, (3 β, 7 β ,20S)-pregn-5-èn-18-oïque] | 10% | > 50% | 
6 | C[C@@H]([C@H]1CC[C@H]2[C@@H]3CC[C@H]4C[C@@H](O)CC[C@]4(C)[C@H]3CC[C@]12C)N(C)C [C1, 20-(diméthylamino)-, (3β,5α,20S)-pregnan-3-ol] |  | > 50% | 44%
